According to US6355799B1, “Substituted benzene compounds, process for their preparation, and herbicidal and defoliant compositions containing them” (ISK Americas Incorporated, priority 1997, dated 2002):

Tests used:
Format in all cases: in vivo
[1] = tested on: common ragweed (Ambrosia artemisizfolia L., AMBEL); test: Pre-emerge test, greenhouse herbicide activity screening; conditions: pre-emerge, rated 14 days after application, 0 = no damage, 100 = complete death
Procedure, shortened: (§1)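 Sandy loam pots; pre-emerge: sown 1 d pre-spray, surface-watered after, then bottom-watered. Post-emerge: sown 8–21 d before, 2–3 leaf stage, + 0.25% v/v NIS, bottom-watered. Acetone, 187 l/ha track spray, 15–1000 g ai/ha. 0–100 injury score, day 14.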

[2] = tested on: sicklepod (Cassia obtusifolia, CASOB); test: as above; conditions: pre-emerge, rated 14 days after application, 0 = no damage, 100 = complete death
Procedure, shortened: as §1

[3] = tested on: large crabgrass (Digitaria sanguinalis, DIGSA); test: as above; conditions: pre-emerge, rated 14 days after application, 0 = no damage, 100 = complete death
Procedure, shortened: as §1

[4] = tested on: ivyleaf morningglory (Ipomoea hederacea, IPOHE); test: as above; conditions: pre-emerge, rated 14 days after application, 0 = no damage, 100 = complete death
Procedure, shortened: as §1

[5] = tested on: johnsongrass (Sorghum halepense, SORHA); test: as above; conditions: pre-emerge, rated 14 days after application, 0 = no damage, 100 = complete death
Procedure, shortened: as §1

[6] = tested on: green foxtail (Setaria viridis, SETVI); test: as above; conditions: pre-emerge, rated 14 days after application, 0 = no damage, 100 = complete death
Procedure, shortened: as §1

[7] = tested on: barnyardgrass (Echinochloa crus-galli, ECHCG); test: as above; conditions: pre-emerge, rated 14 days after application, 0 = no damage, 100 = complete death
Procedure, shortened: as §1

[8] = tested on: velvetleaf (Abutilon theophrasti, ABUTH); test: as above; conditions: pre-emerge, rated 14 days after application, 0 = no damage, 100 = complete death
Procedure, shortened: as §1

[9] = tested on: lambsquarters (Chenopodium album, CHEAL); test: as above; conditions: pre-emerge, rated 14 days after application, 0 = no damage, 100 = complete death
Procedure, shortened: as §1

[10] = tested on: field corn (Zea mays L., var. Dekalb 535, CORN); test: Post-emerge test, crop safety; conditions: phytotoxicity rating 0-100 (0 no damage, 100 complete death), 14 days after application
Procedure, shortened: as §1

[11] = tested on: upland rice (Oryza sp., var. Tebonnet, RICE); test: Post-emerge test, crop safety; conditions: phytotoxicity rating 0-100 (0 no damage, 100 complete death), 14 days after application
Procedure, shortened: as §1

[12] = tested on: field corn (Zea mays L., var. Dekalb 535, CORN); test: Pre-emerge test, crop safety; conditions: pre-emerge, rated 14 days after application, 0 = no damage, 100 = complete death
Procedure, shortened: (§2)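 Applied at 15–1000 g ai/ha from acetone in 187 l/ha spray volume. Post-emergence applications included 0.25% v/v non-ionic surfactant and reached plants sown 8–21 days before. Pre-emergence applications were incorporated by surface watering. Efficacy or crop damage was rated on a 0–100 scale after 14 days.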

[13] = tested on: upland rice (Oryza sp., var. Tebonnet, RICE); test: Pre-emerge test, crop safety; conditions: pre-emerge, rated 14 days after application, 0 = no damage, 100 = complete death
Procedure, shortened: as §2

[14] = tested on: redroot pigweed (Amaranthus retroflexus, AMARE); test: Pre-emerge test, greenhouse herbicide activity screening; conditions: pre-emerge, rated 14 days after application, 0 = no damage, 100 = complete death
Procedure, shortened: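 Plants grown in 10 cm pots of sandy loam mix received acetone-dissolved compounds through a moving flat-fan nozzle. Doses ranged from 15 to 1000 g ai/ha. Pre-emerge pots were seeded one day earlier, post-emerge pots 8–21 days earlier. Fourteen days on, each pot was graded 0–100 for damage.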

[15] = tested on: common ragweed (Ambrosia artemisizfolia L., AMBEL); test: Post-emerge test, greenhouse herbicide activity screening; conditions: phytotoxicity rating 0-100 (0 no damage, 100 complete death), 14 days after application
Procedure, shortened: (§3)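 Compounds in acetone were track-sprayed at 15-1000 g ai/ha (187 l/ha) on sandy loam pots: pre-emerge one day after seeding, post-emerge at 2-3 leaf stage with 0.25% v/v non-ionic surfactant. Phytotoxicity was rated 14 days later on a 0 (no damage) to 100 (complete death) scale.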

[16] = tested on: sicklepod (Cassia obtusifolia, CASOB); test: as above; conditions: phytotoxicity rating 0-100 (0 no damage, 100 complete death), 14 days after application
Procedure, shortened: as §3

[17] = tested on: large crabgrass (Digitaria sanguinalis, DIGSA); test: as above; conditions: phytotoxicity rating 0-100 (0 no damage, 100 complete death), 14 days after application
Procedure, shortened: as §3

[18] = tested on: ivyleaf morningglory (Ipomoea hederacea, IPOHE); test: as above; conditions: phytotoxicity rating 0-100 (0 no damage, 100 complete death), 14 days after application
Procedure, shortened: as §3

[19] = tested on: johnsongrass (Sorghum halepense, SORHA); test: as above; conditions: phytotoxicity rating 0-100 (0 no damage, 100 complete death), 14 days after application
Procedure, shortened: as §3

[20] = tested on: green foxtail (Setaria viridis, SETVI); test: as above; conditions: phytotoxicity rating 0-100 (0 no damage, 100 complete death), 14 days after application
Procedure, shortened: as §3

[21] = tested on: redroot pigweed (Amaranthus retroflexus, AMARE); test: as above; conditions: phytotoxicity rating 0-100 (0 no damage, 100 complete death), 14 days after application
Procedure, shortened: as §3

[22] = tested on: barnyardgrass (Echinochloa crus-galli, ECHCG); test: as above; conditions: phytotoxicity rating 0-100 (0 no damage, 100 complete death), 14 days after application
Procedure, shortened: as §3

[23] = tested on: velvetleaf (Abutilon theophrasti, ABUTH); test: as above; conditions: phytotoxicity rating 0-100 (0 no damage, 100 complete death), 14 days after application
Procedure, shortened: as §3

[24] = tested on: lambsquarters (Chenopodium album, CHEAL); test: as above; conditions: phytotoxicity rating 0-100 (0 no damage, 100 complete death), 14 days after application
Procedure, shortened: as §3

SMILES: COc1c(Cl)cc(F)c(-n2c(=O)c(N)c(C(F)(F)F)n(C)c2=O)c1N [Compound 1-10]
- Pre-emerge Herbicidal Activity AMBEL (phytotoxicity rating, scale 0-100) ([1]; 63 g ai/ha): 0
- Pre-emerge Herbicidal Activity AMBEL (phytotoxicity rating, scale 0-100) ([1]; 250 g ai/ha): 60
- Pre-emerge Herbicidal Activity CASOB (phytotoxicity rating, scale 0-100) ([2]; 63 g ai/ha): 20
- Pre-emerge Herbicidal Activity CASOB (phytotoxicity rating, scale 0-100) ([2]; 250 g ai/ha): 50
- Pre-emerge Herbicidal Activity DIGSA (phytotoxicity rating, scale 0-100) ([3]; 63 g ai/ha): 0
- Pre-emerge Herbicidal Activity DIGSA (phytotoxicity rating, scale 0-100) ([3]; 250 g ai/ha): 30
- Pre-emerge Herbicidal Activity IPOHE (phytotoxicity rating, scale 0-100) ([4]; 63 g ai/ha): 0
- Pre-emerge Herbicidal Activity IPOHE (phytotoxicity rating, scale 0-100) ([4]; 250 g ai/ha): 60
- Pre-emerge Herbicidal Activity SORHA (phytotoxicity rating, scale 0-100) ([5]; 63 g ai/ha): 0
- Pre-emerge Herbicidal Activity SORHA (phytotoxicity rating, scale 0-100) ([5]; 250 g ai/ha): 0
- Pre-emerge Herbicidal Activity SETVI (phytotoxicity rating, scale 0-100) ([6]; 63 g ai/ha): 0
- Pre-emerge Herbicidal Activity SETVI (phytotoxicity rating, scale 0-100) ([6]; 250 g ai/ha): 100
- Pre-emerge Herbicidal Activity ECHCG (phytotoxicity rating, scale 0-100) ([7]; 63 g ai/ha): 0
- Pre-emerge Herbicidal Activity ECHCG (phytotoxicity rating, scale 0-100) ([7]; 250 g ai/ha): 0
- Pre-emerge Herbicidal Activity ABUTH (phytotoxicity rating, scale 0-100) ([8]; 63 g ai/ha): 100
- Pre-emerge Herbicidal Activity ABUTH (phytotoxicity rating, scale 0-100) ([8]; 250 g ai/ha): 100
- Pre-emerge Herbicidal Activity CHEAL (phytotoxicity rating, scale 0-100) ([9]; 63 g ai/ha): 30
- Pre-emerge Herbicidal Activity CHEAL (phytotoxicity rating, scale 0-100) ([9]; 250 g ai/ha): 100
- Post-emerge Herbicidal Activity CORN (crop damage) ([10]; 63 g ai/ha): 0
- Post-emerge Herbicidal Activity CORN (crop damage) ([10]; 250 g ai/ha): 0
- Post-emerge Herbicidal Activity RICE (crop damage) ([11]; 63 g ai/ha): 0
- Post-emerge Herbicidal Activity RICE (crop damage) ([11]; 250 g ai/ha): 0
- Pre-emerge crop damage CORN (phytotoxicity rating, scale 0-100) ([12]; 63 g ai/ha): 0
- Pre-emerge crop damage CORN (phytotoxicity rating, scale 0-100) ([12]; 250 g ai/ha): 0
- Pre-emerge crop damage RICE (phytotoxicity rating, scale 0-100) ([13]; 63 g ai/ha): 0
- Pre-emerge crop damage RICE (phytotoxicity rating, scale 0-100) ([13]; 250 g ai/ha): 0
- Pre-emerge Herbicidal Activity AMARE (phytotoxicity rating, scale 0-100) ([14]; 63 g ai/ha): 70
- Pre-emerge Herbicidal Activity AMARE (phytotoxicity rating, scale 0-100) ([14]; 250 g ai/ha): 100
- Post-emerge Herbicidal Activity AMBEL ([15]; 63 g ai/ha): 0
- Post-emerge Herbicidal Activity AMBEL ([15]; 250 g ai/ha): 30
- Post-emerge Herbicidal Activity CASOB ([16]; 63 g ai/ha): 0
- Post-emerge Herbicidal Activity CASOB ([16]; 250 g ai/ha): 10
- Post-emerge Herbicidal Activity DIGSA ([17]; 63 g ai/ha): 0
- Post-emerge Herbicidal Activity DIGSA ([17]; 250 g ai/ha): 0
- Post-emerge Herbicidal Activity IPOHE ([18]; 63 g ai/ha): 20
- Post-emerge Herbicidal Activity IPOHE ([18]; 250 g ai/ha): 70
- Post-emerge Herbicidal Activity SORHA ([19]; 63 g ai/ha): 0
- Post-emerge Herbicidal Activity SORHA ([19]; 250 g ai/ha): 0
- Post-emerge Herbicidal Activity SETVI ([20]; 63 g ai/ha): 0
- Post-emerge Herbicidal Activity SETVI ([20]; 250 g ai/ha): 0
- Post-emerge Herbicidal Activity AMARE ([21]; 63 g ai/ha): 10
- Post-emerge Herbicidal Activity AMARE ([21]; 250 g ai/ha): 30
- Post-emerge Herbicidal Activity ECHCG ([22]; 63 g ai/ha): 0
- Post-emerge Herbicidal Activity ECHCG ([22]; 250 g ai/ha): 0
- Post-emerge Herbicidal Activity ABUTH ([23]; 63 g ai/ha): 30
- Post-emerge Herbicidal Activity ABUTH ([23]; 250 g ai/ha): 90
- Post-emerge Herbicidal Activity CHEAL ([24]; 63 g ai/ha): 10
- Post-emerge Herbicidal Activity CHEAL ([24]; 250 g ai/ha): 50
